Test results reported in patent US9486440B2, “Uses of indole-ketones or indolidones as neuro-protective drugs” (UNIVERSITY OF MACAU, priority 2011, dated 2016).

Legend:
intracellular NO = assay: Intracellular NO in CGNs after MPP+ (DAF-FM diacetate); type: cell-based, rat; conditions: 35 μM MPP+
Procedure: (§1) Intracellular NO was monitored with 4-Amino-5-methylamino-2′,7′-difluorofluorescein (DAF-FM) diacetate, a pH-insensitive fluorescent dye that emits increased fluorescence after reaction with an active intermediate of NO formed during the spontaneous oxidation of NO to NO2 (Sheng et al., 2005). DAF-FM solution was added to the culture medium (final concentration: 5 μM). After 30 min in a CO2 incubator, cultures were washed twice with PBS and incubated for an additional 30 min to allow complete de-esterification of the intracellular diacetate for stronger fluorescence. The DAF-FM fluorescence in CGNs was quantified by a multi-detection microplate reader using excitation and emission wavelengths of 495 nm and 515 nm, respectively. The measured fluorescence values were expressed as a percentage of the fluorescence in the control cells.
as §1, with “(4-amino-5-methylamino-2′,7′-difluorofluorescein) DAF-FM” for “4-Amino-5-methylamino-2′,7′-difluorofluorescein (DAF-FM)”, “After incubation for” for “After”, “another” for “an additional”, “strong” for “stronger”

zebrafish = assay: Toxicity to zebrafish; type: in vivo; conditions: SU5416 10 μM, VRI 3 μM, SU4312 up to 30 μM
Procedure: Wild-type zebrafish (AB strain) and Tg (fli-1:EGFP) transgenic zebrafish were maintained as described in the Zebrafish Handbook (Westerfield, 1993). Zebrafish embryos were generated by natural pair-wise mating (3-12 months old) and raised at 28.5° C. in embryo medium (13.7 mM NaCl, 540 μM KCl, pH 7.4, 25 μM Na2HPO4, 44 μM KH2PO4, 300 μM CaCl2, 100 μM MgSO4, 420 μM NaHCO3, pH 7.4). […] An equal concentration of DMSO in embryo medium was used as vehicle control in each experiment.
Wild-type zebrafish (AB strain) and Tg(fli-1:EGFP) transgenic zebrafish were maintained as described in the Zebrafish Handbook (Westerfield, 1993). Zebrafish embryos were generated by natural pair-wise mating (3-12 months old) and were raised at 28.5° C. in embryo medium (13.7 mM NaCl, 540 μM KCl, pH 7.4, 25 μM Na2HPO4, 44 μM KH2PO4, 300 μM CaCl2, 100 μM MgSO4, 420 μM NaHCO3, pH 7.4). […] Equal concentration of DMSO in embryo medium was used as vehicle control in each experiment.

CGNs [1] = assay: Hoechst 33342 staining of CGNs after MPP+; type: cell-based, rat; conditions: 20 μM, 35 μM MPP+
Procedure: Chromatin condensation was detected by nucleus staining with Hoechst 33342 as described by Li et al., 2005. CGNs (2.7×10^6 cells) grown in a 35-mm dish were washed with ice-cold phosphate-buffered saline (PBS) and fixed with 4% formaldehyde in PBS. The cells were then stained with Hoechst 33342 (5 μg/ml) for 5 min at 4° C. The nuclei were visualized using a fluorescence microscope at ×400 magnification.
Chromatin condensation was detected by staining the cell nucleus with Hoechst 33342 as described by Li et al., 2005. CGNs (2.7×10^6 cells) grown in a 35-mm dish were washed with ice-cold phosphate-buffered saline (PBS), fixed with 4% formaldehyde in PBS, membrane-permeabilized in 0.1% Triton X-100 and blocked in 1% BSA. Cells were then exposed to a primary nNOS antibody (Santa Cruz) overnight at 4° C. followed by incubation at room temperature with an Alexa Fluor 488-conjugated secondary antibody. After immunostaining, cells were then stained with Hoechst 33342 (5 μg/ml) at 4° C. for 5 min. Images were acquired using a fluorescence microscope at ×100 magnification.
To quantify the percentage of apoptotic nuclei in each group, photos of each dish (n=3 dishes in each group for three independent experiments) were taken at five random fields and the numbers of apoptotic nuclei and total nuclei (n=300) were counted, and the percentage of apoptotic nuclei was averaged.

CGNs [2] = assay: FDA/PI double staining of CGNs after MPP+; type: cell-based, rat; conditions: 20 μM, 35 μM MPP+
Procedure: Viable granule neurons were stained with fluorescein formed from fluorescein diacetate (FDA), which is de-esterified only by living cells. Propidium iodide (PI) can penetrate cell membranes of dead cells to intercalate into double-stranded nucleic acids. Briefly, after incubation with 10 μg/ml FDA and 5 μg/ml PI for 15 min, the neurons were examined and photographed using UV light microscopy; and the pictures were compared with those photographed under phase contrast microscopy.
Viable granule neurons were stained with fluorescein formed from fluorescein diacetate (FDA) by esterase in viable cells. Propidium iodide (PI) can penetrate cell membranes of dead cells to intercalate into double-stranded nucleic acids. Briefly, after incubation with 10 μg/ml of FDA and 5 μg/ml of PI for 15 min, the neurons were examined and images were acquired using UV light microscopy for comparison with photos taken under phase contrast microscopy.

[3] = molecular target: T1, recombinant human endothelial NOS (eNOS) (Homo sapiens, UniProt P29474); assay: In vitro NOS activity assay, eNOS; type: biochemical; conditions: PTK787/ZK222584 up to 1 mM
T1 construct: purchased Alexis Biochemicals (Lausen, Switzerland)
Procedure: In the in vitro NOS activity assay (Li et al., 2007), purified recombinant human nNOS, endothelial NOS (eNOS), and inducible NOS (iNOS) were bought from Alexis Biochemicals (Lausen, Switzerland). NOS activity was determined by monitoring the conversion of L-[3H]arginine to [3H]citrulline following the instructions provided in the kit (Calbiochem, USA). The reaction mixture contained a final volume of 40 μl with 25 mM Tris-Cl at pH 7.4, 3 μM tetrahydrobiopterin, 1 μM FAD, 1 μM FMN, 1 mM NADPH, 0.6 mM CaCl2, 0.1 μM calmodulin, 2.5 μg of pure NOS enzyme, 5 μl L-[3H]arginine (Perkin Elmer, Waltham, Mass., USA), and different concentrations of the tested reagents. The reaction mixture was incubated at 22° C. for 45 min. The reaction was quenched by adding 400 μl of stopping buffer (50 mM HEPES, pH 5.5, and 5 mM EDTA) for nNOS and eNOS reactions or by heating reactive tubes for iNOS. Unreacted L-[3H]arginine was then trapped by 100 μl of equilibrated resin provided in a spin cup followed by centrifugation for 30 s at 13,200 rpm. The filtrate was quantified by liquid scintillation counting.

## Cc1cc(C)c(/C=C2\C(=O)Nc3ccccc32)[nH]1 [SU5416, (3Z)-3-[(3,5-dimethyl-1H-pyrrol-2-yl)methylidene]-1,3-dihydro-2H-indol-2-one]
Intracellular NO; measured at 8 hour
  MPP+-stimulated NO production: antagonized the stimulatory effect of MPP^+ on the NO production with an efficacy similar to 7-nitroindazole (15 μM)
zebrafish
  toxicity to zebrafish: showed toxicity to zebrafish
CGNs [1]
  nuclear condensation / apoptotic nuclei (Hoechst 33342): significantly reversed neuronal apoptosis induced by MPP^+
CGNs [2]
  loss of neurons and morphological alterations (FDA/PI, phase contrast): significantly blocked the loss of neurons and reversed the morphological alteration

## CN(C)c1ccc(C=C2C(=O)Nc3ccccc32)cc1 [SU4312, 3-[4-(dimethylamino)benzylidenyl]indolin-2-one]
Intracellular NO; pre-treatment 2 hours, 24 hours, SU4312 3-30 μM, 7-NI 3-10 μM
  MPP+-induced elevation of intracellular NO level: attenuated MPP^+-triggered elevation of intracellular NO level
[3]
  inhibition of recombinant human eNOS: no activity against eNOS
zebrafish
  toxicity to zebrafish: did not induce any neurotoxicity
CGNs [1]
  nuclear condensation / apoptotic nuclei (Hoechst 33342): significantly reversed nuclear condensation induced by MPP^+
CGNs [2]
  loss of neurons and morphological alterations (FDA/PI, phase contrast): significantly blocked MPP^+-induced loss of neurons and reversed MPP^+-induced morphological alterations

## Clc1ccc(Nc2nnc(Cc3ccncc3)c3ccccc23)cc1 [PTK787/ZK222584]
[3]
  inhibition of recombinant human eNOS: did not inhibit any of the isoforms even at 1 mM
